Results on two compounds are retold here after publication PMC5861220, “The Cytochrome P450-Mediated Metabolism Alternation of Four Effective Lignans From Schisandra chinensis in Carbon Tetrachloride-Intoxicated Rats and Patients With Advanced Hepatocellular Carcinoma” (Frontiers in Pharmacology, 2018).

One series concerns P-glycoprotein (P-gp). Put plainly: P-gp substrate assessment from Caco-2 transport (Papp and ER). In kind it is in vitro ADME. Particulars: Caco-2 cell monolayer, 5, 10 and 50 μM. As for the experimental part:
Caco-2 cell (passage 38) was used in the transport experiments. Cells were seeded on polycarbonate filters (12 mm diameter, pore size […]) at 1 × 10^5/cm^2. The cell monolayer was formed 21 days post seeding when the transepithelial electrical resistance (TEER) was above 1,000 Ω• cm^2. Three concentration levels (5, 10, and 50 μM) were set for the four schisandra lignans in the study. After preincubation for 1 h at 37°C, the solution of the four lignans was respectively added to the apical (0.4 mL) or basolateral (0.6 mL) chamber for absorptive (AP → BL) and secretive (BL → AP) permeability test. At the specified timepoints (0.5, 1, 1.5 and 2 h), 50 μL samples (n = 3) were withdrawn from receiver chamber, and meanwhile, 50 μL fresh buffer was added. The four lignans were determined by HPLC-MS method.
The apparent permeability coefficient (Papp) in the Caco-2 cell was calculated by the formula Papp = (ΔQ/Δt)/AC0, where ΔQ/Δt is the transport rate (nmol/s), which remained approximately constant in time, A is the well membrane area (0.6 cm^2), and C0 is the initial concentration of the four lignans (μM). The efflux rate (ER) was calculated by the formula ER = Papp (BL → AP)/Papp(AP → BL).
For orientation: Passage across Caco-2 layers is used to estimate intestinal permeability.

The test system of series [1] is rat intestine (jejunum segment). Nature of the series: In situ intestinal perfusion of four lignans. Format: in vivo. Particulars: for Perfusate (Percent of the initial dose) / Plasma (Percent of the initial dose) / Intestine (Percent of the initial dose) / Pblood / Plumen: 50 μM, n = 3; for Perfusate (Percent of the initial dose): intestinal perfusion 60 min; for Plasma (Percent of the initial dose) / Intestine (Percent of the initial dose) / Rise of cumulative plasma amount: intestinal perfusion; for Plasma (Percent of the initial dose): mesenteric vein blood; for Increase of remaining amount in perfusate: intestinal autoperfusion (60 min), CCl4-treated rats vs control; for Rise of cumulative plasma amount: CCl4-intoxicated rats vs control. As for the experimental part: The surgical procedures of intestinal perfusion were conducted according to those published reports (Savina et al., [1981]). Hank's balanced salt solution (HBSS, pH 7.4) with four schisandra lignans (50 μM) at 37°C was infused into the jejunum segment at rate of 0.3 mL/min. Phenol Red (50 μM) was added to serve as a nonabsorbable marker for measuring water flux. Blood samples from mesenteric vein and perfusate were collected at 5-min interval. The plasma separated by centrifugation and perfusate was stored at −20°C until HPLC-MS analysis.
The permeability of four lignans across the rat intestine was calculated based on the disappearance of parent drug from the lumen (Plumen) as well as the appearance of the drug in blood (Pblood) using the following equations (Singhal et al., [1998]):
(1) Plumen = −Q/2πrlLnCout/Cin
(1) Pblood = ΔMB/Δt/2πrl{C}
where r is the radius of the perfused intestinal lumen; l is the length of the segment; Q is the flow rate of perfusate; Cin is the concentration of drug at the start of perfusion; and Cout is the steady-state concentration of drug exiting the lumen. ΔMB/Δt is the rate of drug appearance in mesenteric blood; and {C} is the logarithmic mean concentration of drug in the lumen.

As to `COc1cc2c(c(OC)c1OC)-c1c(cc(OC)c(OC)c1OC)C[C@H](C)[C@@H](C)C2` [Deoxyshisandrin, deoxyshisandrin], the “P-glycoprotein (P-gp) substrate classification according to Papp and ER” value in the series on P-glycoprotein (P-gp) was “some efflux trend”. Also, in series [1] (CCl4-intoxicated rats), the “Perfusate (Percent of the initial dose)” value is reported as 91.77 ± 1.59% of the initial dose, the “Plasma (Percent of the initial dose)” value is reported as 0.83 ± 0.06% of the initial dose, the “Intestine (Percent of the initial dose)” value is listed as 1.79 ± 0.41% of the initial dose and the Pblood is listed as 0.063 ± 0.018 × 10^−4 cm/s. Further, in series [1] (CCl4-intoxicated rats), the Plumen was 2.270 ± 0.363 × 10^−4 cm/s. In series [1] (Control rats), the “Perfusate (Percent of the initial dose)” value is 81.69 ± 1.77% of the initial dose, the “Plasma (Percent of the initial dose)” value is reported as 0.51 ± 0.03% of the initial dose, the “Intestine (Percent of the initial dose)” value is given as 1.69 ± 0.30% of the initial dose and the Pblood is recorded as 0.053 ± 0.009 × 10^−4 cm/s. Further, in series [1] (Control rats), the Plumen is on record as 2.337 ± 0.211 × 10^−4 cm/s. In addition, in series [1], the “Increase of remaining amount in perfusate” value is “about 10%” and the “Rise of cumulative plasma amount” value is reported as around 63%.
Consider `COc1cc2c(c(OC)c1OC)-c1c(cc(OC)c(OC)c1OC)C[C@](C)(O)[C@@H](C)C2` [Schisandrin, schisandrin], for which, in series [1] (CCl4-intoxicated rats), the “Perfusate (Percent of the initial dose)” value is on record as 93.40 ± 1.05% of the initial dose, the “Plasma (Percent of the initial dose)” value is recorded as 0.84 ± 0.06% of the initial dose, the “Intestine (Percent of the initial dose)” value was 1.98 ± 0.13% of the initial dose and the Pblood is on record as 0.063 ± 0.008 × 10^−4 cm/s. In series [1] (CCl4-intoxicated rats), the Plumen is 2.420 ± 0.788 × 10^−4 cm/s. Also, in series [1] (Control rats), the “Perfusate (Percent of the initial dose)” value is given as 86.16 ± 1.39% of the initial dose, the “Plasma (Percent of the initial dose)” value was 0.44 ± 0.06% of the initial dose, the “Intestine (Percent of the initial dose)” value is reported as 2.22 ± 0.96% of the initial dose and the Pblood is reported as 0.046 ± 0.008 × 10^−4 cm/s. Further, the Plumen in series [1] (Control rats) was 2.490 ± 0.141 × 10^−4 cm/s. In series [1], the “Increase of remaining amount in perfusate” value is recorded as “about 10%” and the “Rise of cumulative plasma amount” value is reported as “about 91%”.
